Reference: PMC7026418, “The kinase polypharmacology landscape of clinical PARP inhibitors” (Scientific Reports, 2020)
Where two headings read alike, the source gives them in different places. Blank lines part the entries; values can stand above or below the compound they belong to.

Legend:
Test in all cases: biochemical
Parameters in all cases: DiscoveRx KINOMEscan active site-directed competition binding; percent of control kinase bound to immobilised ligand
ERBB4 = ERBB4 (Homo sapiens, UniProt Q15303)
Chain of ERBB4 (Q15303 whole entry): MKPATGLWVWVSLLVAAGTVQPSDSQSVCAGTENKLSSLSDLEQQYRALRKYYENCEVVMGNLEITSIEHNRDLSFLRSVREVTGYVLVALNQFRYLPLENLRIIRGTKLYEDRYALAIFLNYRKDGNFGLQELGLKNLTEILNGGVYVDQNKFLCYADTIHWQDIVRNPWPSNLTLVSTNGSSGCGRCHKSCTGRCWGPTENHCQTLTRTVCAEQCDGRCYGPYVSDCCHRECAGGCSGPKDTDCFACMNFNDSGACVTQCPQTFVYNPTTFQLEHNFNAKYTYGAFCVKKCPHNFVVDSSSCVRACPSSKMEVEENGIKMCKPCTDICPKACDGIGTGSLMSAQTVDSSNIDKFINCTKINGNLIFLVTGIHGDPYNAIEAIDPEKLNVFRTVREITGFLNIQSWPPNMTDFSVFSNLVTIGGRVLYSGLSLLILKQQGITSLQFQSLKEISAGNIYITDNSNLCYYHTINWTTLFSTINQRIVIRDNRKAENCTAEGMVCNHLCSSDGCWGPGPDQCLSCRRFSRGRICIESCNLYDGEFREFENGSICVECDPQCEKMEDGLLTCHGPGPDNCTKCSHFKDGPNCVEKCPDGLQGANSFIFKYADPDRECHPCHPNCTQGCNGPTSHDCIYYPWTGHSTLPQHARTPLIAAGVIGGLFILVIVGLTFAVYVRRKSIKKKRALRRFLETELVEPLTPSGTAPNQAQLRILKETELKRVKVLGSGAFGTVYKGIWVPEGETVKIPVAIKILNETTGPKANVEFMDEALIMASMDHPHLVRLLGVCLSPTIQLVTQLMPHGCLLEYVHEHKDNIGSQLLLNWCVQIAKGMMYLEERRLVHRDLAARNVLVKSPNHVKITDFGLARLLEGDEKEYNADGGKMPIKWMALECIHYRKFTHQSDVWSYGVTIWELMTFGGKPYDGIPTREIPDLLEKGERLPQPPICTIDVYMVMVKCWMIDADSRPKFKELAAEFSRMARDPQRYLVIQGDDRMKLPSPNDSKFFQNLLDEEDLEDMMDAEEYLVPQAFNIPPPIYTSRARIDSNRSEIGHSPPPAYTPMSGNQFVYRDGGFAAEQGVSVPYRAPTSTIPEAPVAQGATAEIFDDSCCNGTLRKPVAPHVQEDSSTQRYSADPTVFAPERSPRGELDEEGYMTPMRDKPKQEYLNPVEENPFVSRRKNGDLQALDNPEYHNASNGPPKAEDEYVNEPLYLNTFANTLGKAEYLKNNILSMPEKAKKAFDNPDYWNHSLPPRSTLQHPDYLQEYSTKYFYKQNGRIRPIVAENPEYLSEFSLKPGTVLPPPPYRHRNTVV

ERK5 = biological target: T1, ERK5 (Homo sapiens, UniProt Q13164)
T1 construct: gene MAPK7
T1 sequence (Q13164 whole entry): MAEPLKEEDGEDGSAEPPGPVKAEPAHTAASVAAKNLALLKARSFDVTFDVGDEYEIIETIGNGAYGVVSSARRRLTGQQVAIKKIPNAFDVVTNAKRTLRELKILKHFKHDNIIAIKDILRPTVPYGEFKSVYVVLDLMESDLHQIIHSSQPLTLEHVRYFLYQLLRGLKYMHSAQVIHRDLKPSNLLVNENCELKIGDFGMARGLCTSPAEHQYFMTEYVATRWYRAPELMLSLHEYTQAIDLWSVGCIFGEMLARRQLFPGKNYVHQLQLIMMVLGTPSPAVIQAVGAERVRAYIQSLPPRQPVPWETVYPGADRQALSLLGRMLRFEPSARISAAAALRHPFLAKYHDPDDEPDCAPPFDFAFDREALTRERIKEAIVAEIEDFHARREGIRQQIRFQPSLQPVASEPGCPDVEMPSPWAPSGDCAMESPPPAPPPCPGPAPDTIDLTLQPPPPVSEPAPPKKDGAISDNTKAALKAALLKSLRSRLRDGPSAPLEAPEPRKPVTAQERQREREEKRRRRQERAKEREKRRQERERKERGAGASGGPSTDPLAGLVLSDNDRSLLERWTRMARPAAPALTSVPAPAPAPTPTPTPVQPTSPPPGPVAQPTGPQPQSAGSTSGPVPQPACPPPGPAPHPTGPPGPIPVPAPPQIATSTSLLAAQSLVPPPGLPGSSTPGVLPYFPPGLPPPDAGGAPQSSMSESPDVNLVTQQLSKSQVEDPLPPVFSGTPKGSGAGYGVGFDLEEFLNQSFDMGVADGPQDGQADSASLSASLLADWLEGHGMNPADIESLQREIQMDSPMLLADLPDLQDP

FGFR3 = FGFR3 (Homo sapiens, UniProt P22607)
Chain of FGFR3 (P22607 whole entry): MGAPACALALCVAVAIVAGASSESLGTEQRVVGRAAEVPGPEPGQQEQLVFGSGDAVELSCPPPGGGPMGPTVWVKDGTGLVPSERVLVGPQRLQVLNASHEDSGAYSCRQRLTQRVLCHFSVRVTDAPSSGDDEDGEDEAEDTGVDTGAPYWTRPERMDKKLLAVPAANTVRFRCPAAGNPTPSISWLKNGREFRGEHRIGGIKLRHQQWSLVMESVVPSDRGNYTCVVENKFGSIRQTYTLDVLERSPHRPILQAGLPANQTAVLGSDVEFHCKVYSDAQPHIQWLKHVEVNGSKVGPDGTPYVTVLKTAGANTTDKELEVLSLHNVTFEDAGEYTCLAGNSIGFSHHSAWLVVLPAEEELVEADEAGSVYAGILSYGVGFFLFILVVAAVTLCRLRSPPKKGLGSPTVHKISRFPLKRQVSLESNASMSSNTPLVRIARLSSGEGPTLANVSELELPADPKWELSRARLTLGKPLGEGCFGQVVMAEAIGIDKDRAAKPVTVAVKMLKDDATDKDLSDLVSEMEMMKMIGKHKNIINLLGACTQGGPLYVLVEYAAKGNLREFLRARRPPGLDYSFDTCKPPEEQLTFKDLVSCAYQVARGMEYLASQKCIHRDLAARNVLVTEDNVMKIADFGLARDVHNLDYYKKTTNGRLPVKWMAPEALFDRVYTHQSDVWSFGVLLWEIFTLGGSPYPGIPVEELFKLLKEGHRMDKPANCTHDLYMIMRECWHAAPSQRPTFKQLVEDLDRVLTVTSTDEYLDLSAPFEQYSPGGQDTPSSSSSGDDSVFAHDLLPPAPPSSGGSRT

[1] = biological target: T2, JAK1(JH1domain-catalytic) (Homo sapiens, UniProt P23458)
T2 construct: JH1domain-catalytic

MEK4 = biological target: T3, MEK4 (Homo sapiens, UniProt P45985)
T3 construct: gene MAP2K4
T3 sequence (P45985 1-399): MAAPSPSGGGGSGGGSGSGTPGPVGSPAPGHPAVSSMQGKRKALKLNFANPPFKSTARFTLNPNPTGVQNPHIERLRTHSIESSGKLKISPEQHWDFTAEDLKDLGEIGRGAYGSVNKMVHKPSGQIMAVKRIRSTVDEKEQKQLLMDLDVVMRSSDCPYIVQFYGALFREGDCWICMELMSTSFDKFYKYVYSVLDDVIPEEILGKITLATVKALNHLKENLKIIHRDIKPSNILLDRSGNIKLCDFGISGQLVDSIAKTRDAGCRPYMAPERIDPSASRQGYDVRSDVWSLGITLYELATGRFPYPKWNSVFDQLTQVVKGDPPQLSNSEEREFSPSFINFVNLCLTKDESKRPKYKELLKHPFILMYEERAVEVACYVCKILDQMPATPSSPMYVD

MRCKB = biological target: T4, MRCKB (Homo sapiens, UniProt Q9Y5S2)
T4 construct: gene CDC42BPB

MST3 = biological target: T5, MST3 (Homo sapiens, UniProt Q9Y6E0)
T5 construct: gene STK24

OSR1 = biological target: T6, OSR1 (Homo sapiens, UniProt O95747)
T6 construct: gene OXSR1
T6 sequence (O95747 whole entry): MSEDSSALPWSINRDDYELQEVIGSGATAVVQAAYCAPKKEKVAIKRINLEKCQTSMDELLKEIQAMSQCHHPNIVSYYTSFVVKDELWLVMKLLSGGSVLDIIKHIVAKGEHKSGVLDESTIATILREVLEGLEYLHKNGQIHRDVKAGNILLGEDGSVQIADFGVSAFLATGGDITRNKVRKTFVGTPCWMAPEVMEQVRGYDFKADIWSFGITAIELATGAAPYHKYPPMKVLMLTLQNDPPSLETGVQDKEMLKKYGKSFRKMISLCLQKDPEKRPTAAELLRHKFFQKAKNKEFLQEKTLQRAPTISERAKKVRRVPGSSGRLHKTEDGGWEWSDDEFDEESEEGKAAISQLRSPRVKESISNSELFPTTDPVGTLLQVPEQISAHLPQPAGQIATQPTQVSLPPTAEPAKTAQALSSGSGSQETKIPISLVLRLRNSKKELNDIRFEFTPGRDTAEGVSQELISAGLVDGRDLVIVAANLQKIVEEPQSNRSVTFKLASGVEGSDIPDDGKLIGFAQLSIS

PAK2 = PAK2 (Homo sapiens, UniProt Q13177)
Chain of PAK2 (Q13177 whole entry): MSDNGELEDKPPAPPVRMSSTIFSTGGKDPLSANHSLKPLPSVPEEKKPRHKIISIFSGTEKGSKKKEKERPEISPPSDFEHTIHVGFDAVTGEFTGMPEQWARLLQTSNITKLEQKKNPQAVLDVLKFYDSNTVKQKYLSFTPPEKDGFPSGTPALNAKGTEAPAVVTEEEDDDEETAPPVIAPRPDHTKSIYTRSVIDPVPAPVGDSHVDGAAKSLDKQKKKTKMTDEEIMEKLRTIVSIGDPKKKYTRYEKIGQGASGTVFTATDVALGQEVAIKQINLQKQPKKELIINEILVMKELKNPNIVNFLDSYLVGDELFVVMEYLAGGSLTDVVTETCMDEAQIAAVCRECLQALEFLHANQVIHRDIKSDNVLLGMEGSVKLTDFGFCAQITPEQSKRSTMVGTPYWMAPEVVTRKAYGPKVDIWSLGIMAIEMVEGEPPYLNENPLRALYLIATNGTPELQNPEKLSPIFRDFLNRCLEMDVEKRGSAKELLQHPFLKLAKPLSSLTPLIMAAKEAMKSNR

PIK3CA(I800L) = PIK3CA(I800L) (Homo sapiens, UniProt P42336, I800L)
Chain of PIK3CA(I800L) (P42336 whole entry I800L): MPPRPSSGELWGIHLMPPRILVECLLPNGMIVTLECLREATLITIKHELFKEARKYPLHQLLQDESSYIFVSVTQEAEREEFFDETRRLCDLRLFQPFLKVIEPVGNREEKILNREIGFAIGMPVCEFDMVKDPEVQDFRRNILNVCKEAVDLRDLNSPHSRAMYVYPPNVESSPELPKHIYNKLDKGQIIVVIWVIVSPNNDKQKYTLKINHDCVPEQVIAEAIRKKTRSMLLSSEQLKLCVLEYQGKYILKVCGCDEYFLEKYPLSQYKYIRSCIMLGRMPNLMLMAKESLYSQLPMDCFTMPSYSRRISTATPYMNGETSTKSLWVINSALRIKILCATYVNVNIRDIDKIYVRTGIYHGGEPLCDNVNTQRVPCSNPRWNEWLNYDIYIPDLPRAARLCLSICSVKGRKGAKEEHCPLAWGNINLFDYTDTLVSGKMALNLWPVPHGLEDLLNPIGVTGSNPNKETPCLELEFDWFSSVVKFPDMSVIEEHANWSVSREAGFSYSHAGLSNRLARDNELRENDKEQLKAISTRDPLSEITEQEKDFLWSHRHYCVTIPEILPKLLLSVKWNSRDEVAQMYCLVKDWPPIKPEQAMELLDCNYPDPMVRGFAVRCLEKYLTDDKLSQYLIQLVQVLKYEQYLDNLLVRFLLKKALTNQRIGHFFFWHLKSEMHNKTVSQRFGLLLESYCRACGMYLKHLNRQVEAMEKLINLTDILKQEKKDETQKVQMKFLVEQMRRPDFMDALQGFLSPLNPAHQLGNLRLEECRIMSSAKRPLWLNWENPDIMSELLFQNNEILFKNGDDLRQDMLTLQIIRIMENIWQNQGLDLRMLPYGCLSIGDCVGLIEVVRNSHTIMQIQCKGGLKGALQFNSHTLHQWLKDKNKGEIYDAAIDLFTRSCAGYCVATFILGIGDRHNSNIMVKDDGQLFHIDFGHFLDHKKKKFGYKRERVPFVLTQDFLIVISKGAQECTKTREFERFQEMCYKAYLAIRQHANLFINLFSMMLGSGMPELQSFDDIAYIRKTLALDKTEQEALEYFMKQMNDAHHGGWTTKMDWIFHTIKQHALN

PIM1 = PIM1 (Homo sapiens, UniProt P11309)
PRKG1 = biological target: T7, PRKG1 (Homo sapiens, UniProt Q13976)
T7 sequence (Q13976 1-671): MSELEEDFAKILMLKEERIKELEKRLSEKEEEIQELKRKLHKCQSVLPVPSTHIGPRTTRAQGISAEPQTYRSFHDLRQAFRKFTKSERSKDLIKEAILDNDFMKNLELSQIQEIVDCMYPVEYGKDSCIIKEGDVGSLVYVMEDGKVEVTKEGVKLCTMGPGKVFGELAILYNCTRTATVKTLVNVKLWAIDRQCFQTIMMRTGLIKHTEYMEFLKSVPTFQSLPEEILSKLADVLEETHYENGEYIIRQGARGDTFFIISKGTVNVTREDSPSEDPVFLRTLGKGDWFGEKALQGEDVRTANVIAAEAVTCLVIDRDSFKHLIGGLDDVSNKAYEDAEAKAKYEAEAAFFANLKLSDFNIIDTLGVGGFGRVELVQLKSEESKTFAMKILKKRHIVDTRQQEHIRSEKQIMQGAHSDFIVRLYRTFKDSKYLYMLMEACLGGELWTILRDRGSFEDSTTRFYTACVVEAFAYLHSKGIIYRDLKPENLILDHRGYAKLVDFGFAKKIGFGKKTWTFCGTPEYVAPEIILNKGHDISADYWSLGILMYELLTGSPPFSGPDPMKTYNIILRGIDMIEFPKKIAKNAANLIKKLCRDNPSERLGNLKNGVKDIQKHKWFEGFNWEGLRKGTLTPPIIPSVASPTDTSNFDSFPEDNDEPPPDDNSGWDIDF

VPS34 = biological target: T8, VPS34 (Homo sapiens, UniProt Q8NEB9)
T8 construct: gene PIK3C3

[2] = read-out: Niraparib (MK-4827) / %Ctrl @ 10000nM
[3] = read-out: Olaparib / %Ctrl @ 10000nM
[4] = read-out: Rucaparib / %Ctrl @ 10000nM, binding competition, % of control
[5] = read-out: Talazoparib (BMN 673) / %Ctrl @ 10000nM

SMILES: NC(=O)c1cccc2cn(-c3ccc([C@@H]4CCCNC4)cc3)nc12 [Niraparib]
- percent of control binding at 10 µM (ERBB4; [2]): 99%
- percent of control binding at 10 µM (ERK5; [2]): 100%
- percent of control binding at 10 µM (FGFR3; [2]): 94%
- percent of control binding at 10 µM [1, 2]: 100%
- percent of control binding at 10 µM (MEK4; [2]): 82%
- percent of control binding at 10 µM (MRCKB; [2]): 98%
- percent of control binding at 10 µM (MST3; [2]): 74%
- percent of control binding at 10 µM (OSR1; [2]): 98%
- percent of control binding at 10 µM (PAK2; [2]): 45%
- percent of control binding at 10 µM (PIK3CA(I800L); [2]): 38%
- percent of control binding at 10 µM (PIM1; [2]): 18%
- percent of control binding at 10 µM (PRKG1; [2]): 100%
- percent of control binding at 10 µM (VPS34; [2]): 14%

- percent of control binding at 10 µM (ERBB4; [3]): 89%
- percent of control binding at 10 µM (ERK5; [3]): 100%
- percent of control binding at 10 µM (FGFR3; [3]): 100%
- percent of control binding at 10 µM [1, 3]: 81%
- percent of control binding at 10 µM (MEK4; [3]): 80%
- percent of control binding at 10 µM (MRCKB; [3]): 100%
- percent of control binding at 10 µM (MST3; [3]): 99%
- percent of control binding at 10 µM (OSR1; [3]): 88%
- percent of control binding at 10 µM (PAK2; [3]): 92%
- percent of control binding at 10 µM (PIK3CA(I800L); [3]): 80%
- percent of control binding at 10 µM (PIM1; [3]): 96%
- percent of control binding at 10 µM (PRKG1; [3]): 100%
- percent of control binding at 10 µM (VPS34; [3]): 90%
SMILES: O=C(c1cc(Cc2n[nH]c(=O)c3ccccc23)ccc1F)N1CCN(C(=O)C2CC2)CC1 [Olaparib]

- percent of control binding at 10 µM (ERBB4; [4]): 89%
- percent of control binding at 10 µM (ERK5; [4]): 100%
- percent of control binding at 10 µM (FGFR3; [4]): 99%
- percent of control binding at 10 µM [1, 4]: 100%
- percent of control binding at 10 µM (MEK4; [4]): 69%
- percent of control binding at 10 µM (MRCKB; [4]): 100%
- percent of control binding at 10 µM (MST3; [4]): 89%
- percent of control binding at 10 µM (OSR1; [4]): 71%
- percent of control binding at 10 µM (PAK2; [4]): 31%
- percent of control binding at 10 µM (PIK3CA(I800L); [4]): 66%
- percent of control binding at 10 µM (PIM1; [4]): 2.8%
- percent of control binding at 10 µM (PRKG1; [4]): 91%
- percent of control binding at 10 µM (VPS34; [4]): 80%
SMILES: CNCc1ccc(-c2[nH]c3cc(F)cc4c3c2CCNC4=O)cc1 [Rucaparib]

- percent of control binding at 10 µM (ERBB4; [5]): 91%
- percent of control binding at 10 µM (ERK5; [5]): 99%
- percent of control binding at 10 µM (FGFR3; [5]): 100%
- percent of control binding at 10 µM [1, 5]: 100%
- percent of control binding at 10 µM (MEK4; [5]): 99%
- percent of control binding at 10 µM (MRCKB; [5]): 100%
- percent of control binding at 10 µM (MST3; [5]): 99%
- percent of control binding at 10 µM (OSR1; [5]): 90%
- percent of control binding at 10 µM (PAK2; [5]): 84%
- percent of control binding at 10 µM (PIK3CA(I800L); [5]): 71%
- percent of control binding at 10 µM (PIM1; [5]): 95%
- percent of control binding at 10 µM (PRKG1; [5]): 57%
- percent of control binding at 10 µM (VPS34; [5]): 100%
SMILES: Cn1ncnc1[C@H]1c2n[nH]c(=O)c3cc(F)cc(c23)N[C@@H]1c1ccc(F)cc1 [Talazoparib]
